Test results taken from patent US20230416228A1 (Forkhead Biotherapeutics, Inc., priority 2020, published 2023).
pIC50: −log10 of the molar value. Counter-ions that a name gives are not always drawn.

Molecular target: T1, human FOXO1 (constitutively active form Thr24Ala, Ser256Ala, Ser319Ala) (Homo sapiens, UniProt Q12778, S256A/S319A/T24A)
T1 construct: expressed in transfected cells; host or cells: HEK293 cells transfected with pcDNA3.1 plasmid
Experiment: FOXO1 inhibitor activity assay: cell-based transcriptional (luciferase) reporter assay in HEK293 cells
Conditions: HEK293 cells transfected with insulin response element firefly luciferase reporter, FOXO1 and Renilla luciferase; 10-point dose response 50 μM to 2.5 nM; 24 hours
How it was run: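 IC50 and maximal inhibition were fitted by 4-parameter logistic regression on normalized firefly/Renilla luciferase ratios. The 0% reference used RFP in place of FOXO1, and the 100% reference was DMSO-only with all plasmids.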

T1 sequence (Q12778 whole entry T24A/S256A/S319A): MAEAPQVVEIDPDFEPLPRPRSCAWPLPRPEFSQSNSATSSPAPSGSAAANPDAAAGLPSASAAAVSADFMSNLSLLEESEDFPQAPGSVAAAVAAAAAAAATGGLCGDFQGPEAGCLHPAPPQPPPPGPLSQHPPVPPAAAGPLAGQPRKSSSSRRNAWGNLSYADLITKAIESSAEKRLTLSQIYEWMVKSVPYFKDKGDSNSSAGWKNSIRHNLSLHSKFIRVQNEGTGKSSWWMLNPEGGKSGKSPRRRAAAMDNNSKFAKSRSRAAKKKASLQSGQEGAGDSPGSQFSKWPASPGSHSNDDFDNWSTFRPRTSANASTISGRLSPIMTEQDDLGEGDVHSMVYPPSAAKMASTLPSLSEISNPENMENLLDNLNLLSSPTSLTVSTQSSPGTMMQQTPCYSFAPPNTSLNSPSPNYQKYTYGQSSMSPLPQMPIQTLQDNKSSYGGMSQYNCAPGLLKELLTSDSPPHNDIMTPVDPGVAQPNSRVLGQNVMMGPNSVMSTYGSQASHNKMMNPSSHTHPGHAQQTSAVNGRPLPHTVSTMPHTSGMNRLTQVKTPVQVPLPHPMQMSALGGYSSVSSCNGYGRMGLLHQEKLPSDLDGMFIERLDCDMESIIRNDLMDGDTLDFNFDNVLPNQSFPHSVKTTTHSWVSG

| pIC50 | SMILES |
| --- | --- |
| 6.00 to 6.52 | CN1CCN(c2ccc(C(=O)Nc3cc(-c4nc5ccccc5[nH]4)n(CCO)n3)cc2)CC1 [Compound A-201, N-[5-(1H-benzimidazol-2-yl)-1-(2-hydroxyethyl)pyrazol-3-yl]-4-(4-methylpiperazin-1-yl)benzamide] |
| 6.52 to 7.00 | Cn1nc(NC(=O)c2ccc(N3CCN(C4COC4)CC3)nc2)cc1-c1nc2ccccc2[nH]1 [Compound A-203, N-[5-(1H-benzimidazol-2-yl)-1-methyl-pyrazol-3-yl]-6-[4-(oxetan-3-yl)piperazin-1-yl]pyridine-3-carboxamide] |
| < 6.00 | Cn1nc(NC(=O)c2cnc(N3CCC(N4CCOCC4)CC3)nc2)cc1-c1nc2ccccc2[nH]1 [Compound A-206, N-[5-(1H-benzimidazol-2-yl)-1-methyl-pyrazol-3-yl]-2-(4-morpholino-1-piperidyl)pyrimidine-5-carboxamide] |
| 6.00 to 6.52 | Cn1nc(NC(=O)c2ccc(N3CCC(N4CCOCC4)CC3)nn2)cc1-c1nc2ccccc2[nH]1 [Compound A-207, N-[5-(1H-benzimidazol-2-yl)-1-methyl-pyrazol-3-yl]-6-(4-morpholino-1-piperidyl)pyridazine-3-carboxamide] |
| 6.52 to 7.00 | Cn1nc(NC(=O)c2ccc(N3CCC(N4CCOCC4)CC3)nc2)cc1-c1nc2ccccc2[nH]1 [Compound A-208, N-[5-(1H-benzimidazol-2-yl)-1-methyl-pyrazol-3-yl]-6-(4-morpholino-1-piperidyl)pyridine-3-carboxamide] |
| > 7.00 | CN1CCN(c2ccc(C(=O)Nc3cc(-c4nc5ccccc5[nH]4)n(C)n3)cn2)CC1 [Compound A-209, N-[5-(1H-benzimidazol-2-yl)-1-methyl-pyrazol-3-yl]-6-(4-methyl-piperazin-1-yl)pyridine-3-carboxamide] |
| > 7.00 | Cn1nc(NC(=O)c2ccc(N3CCOCC3)nc2)cc1-c1nc2ccccc2[nH]1 [Compound A-210, N-[5-(1H-benzimidazol-2-yl)-1-methyl-pyrazol-3-yl]-6-morpholino-pyridine-3-carboxamide] |
| 6.52 to 7.00 | COc1cc(F)c2[nH]c(-c3cc(NC(=O)c4ccc(N5CCN(CCO)CC5)nc4)nn3C)nc2c1 [Compound A-211, N-[5-(7-fluoro-5-methoxy-1H-benzimidazol-2-yl)-1-methyl-pyrazol-3-yl]-6-[4-(2-hydroxyethyl)piperazin-1-yl]pyridine-3-carboxamide] |
| > 7.00 | CN1CCN(c2ccc(C(=O)Nc3cc(-c4nc5ccccc5[nH]4)n(C)n3)cc2)CC1 [Compound A-212, N-[5-(1H-benzimidazol-2-yl)-1-methyl-pyrazol-3-yl]-4-(4-methyl-piperazin-1-yl)benzamide] |
| 6.52 to 7.00 | Cn1nc(NC(=O)c2ccc(N3CCN(CCO)CC3)cc2)cc1-c1nc2ccccc2[nH]1 [Compound A-213, N-[5-(1H-benzimidazol-2-yl)-1-methyl-pyrazol-3-yl]-4-[4-(2-hydroxy-ethyl)piperazin-1-yl]benzamide] |
| > 7.00 | COc1cc(F)c2[nH]c(-c3cc(NC(=O)c4ccc(N5CCN(C6COC6)CC5)nc4)nn3C)nc2c1 [Compound A-214, N-[5-(7-fluoro-5-methoxy-1H-benzimidazol-2-yl)-1-methyl-pyrazol-3-yl]-6-[4-(oxetan-3-yl)piperazin-1-yl]pyridine-3-carboxamide] |
| 6.52 to 7.00 | Cn1nc(NC(=O)c2ccc(N3CCN(C4COC4)CC3)cc2)cc1-c1nc2ccccc2[nH]1 [Compound A-215, N-[5-(1H-benzimidazol-2-yl)-1-methyl-pyrazol-3-yl]-4-[4-(oxetan-3-yl)piperazin-1-yl]benzamide] |
| 6.52 to 7.00 | Cn1nc(NC(=O)c2ccc(N3CCNCC3)cc2)cc1-c1nc2ccccc2[nH]1 [Compound A-217, N-[5-(1H-benzimidazol-2-yl)-1-methyl-pyrazol-3-yl]-4-piperazin-1-yl-benzamide] |
| > 7.00 | COc1cc(F)c2[nH]c(-c3cc(NC(=O)c4ccc(N5CCN(C6COC6)CC5)cc4)nn3C)nc2c1 [Compound A-219, N-[5-(7-fluoro-5-methoxy-1H-benzimidazol-2-yl)-1-methyl-pyrazol-3-yl]-4-[4-(oxetan-3-yl)piperazin-1-yl]benzamide] |
| > 7.00 | O=C(Nc1cc(-c2nc3ccccc3[nH]2)[nH]n1)c1ccc(N2CCN(C3COC3)CC2)cc1 [Compound A-220, N-[5-(1H-benzimidazol-2-yl)-1H-pyrazol-3-yl]-4-[4-(oxetan-3-yl)piperazin-1-yl]benzamide] |
| > 7.00 | COc1cc(F)c2[nH]c(-c3cc(NC(=O)c4ccc(N5CCN(CCO)CC5)cc4)nn3C)nc2c1 [Compound A-222, N-[5-(7-fluoro-5-methoxy-1H-benzimidazol-2-yl)-1-methyl-pyrazol-3-yl]-4-[4-(2-hydroxyethyl)piperazin-1-yl]benzamide] |
| 6.52 to 7.00 | CC(=O)N1CCN(c2ccc(C(=O)Nc3cc(-c4nc5ccccc5[nH]4)n(C)n3)cn2)CC1 [Compound A-226, 6-(4-acetylpiperazin-1-yl)-N-[5-(1H-benzimidazol-2-yl)-1-methyl-pyrazol-3-yl]pyridine-3-carboxamide] |
| 6.52 to 7.00 | Cn1nc(NC(=O)c2ccc(N3CCN4C(=O)CCC4C3)nc2)cc1-c1nc2ccccc2[nH]1 (stereo not shown) [Compound A-228, N-[5-(1H-benzimidazol-2-yl)-1-methyl-pyrazol-3-yl]-6-(6-oxo-1,3,4,7,8,8a-hexahydropyrrolo[1,2-a]pyrazin-2-yl)pyridine-3-carboxamide] |

The remaining lines, values behind:

| SMILES | pIC50 |
| --- | --- |
| O=C(O)CN1CCN(c2ccc(C(=O)Nc3cc(-c4nc5ccccc5[nH]4)[nH]n3)cc2)CC1 [Compound A-199, 2-[4-[4-[[5-(1H-benzimidazol-2-yl)-1H-pyrazol-3-yl]carbamoyl]phenyl]-piperazin-1-yl]acetic acid hydrochloride] | 6.52 to 7.00 |
| CN1CCN(c2ccc(C(=O)Nc3cc(-c4nc5ccccc5[nH]4)n(CCO)n3)cn2)CC1 [Compound A-200, N-[5-(1H-benzimidazol-2-yl)-1-(2-hydroxyethyl)pyrazol-3-yl]-6-(4-methyl-piperazin-1-yl)pyridine-3-carboxamide] | 6.00 to 6.52 |
| Cn1nc(NC(=O)c2ccc(OCCO)c(Cl)c2)cc1-c1nc2ccccc2[nH]1 [Compound A-202, N-[5-(1H-benzimidazol-2-yl)-1-methyl-pyrazol-3-yl]-3-chloro-4-(2-hydroxyethoxy)benzamide] | > 7.00 |
| Cn1nc(NC(=O)c2ccc(N3CCN(CCO)CC3)nc2)cc1-c1nc2ccccc2[nH]1 [Compound A-204, N-[5-(1H-benzimidazol-2-yl)-1-methyl-pyrazol-3-yl]-6-[4-(2-hydroxy-ethyl)piperazin-1-yl]pyridine-3-carboxamide] | 6.52 to 7.00 |
| Cn1nc(NC(=O)c2cnc(N3CCC(N4CCOCC4)CC3)cn2)cc1-c1nc2ccccc2[nH]1 [Compound A-205, N-[5-(1H-benzimidazol-2-yl)-1-methyl-pyrazol-3-yl]-5-(4-morpholino-1-piperidyl)pyrazine-2-carboxamide] | 6.00 to 6.52 |
| Cn1nc(NC(=O)c2ccc(N3CCNCC3)nc2)cc1-c1nc2ccccc2[nH]1 [Compound A-216, N-[5-(1H-benzimidazol-2-yl)-1-methyl-pyrazol-3-yl]-6-piperazin-1-yl-pyridine-3-carboxamide] | 6.52 to 7.00 |
| O=C(Nc1cc(-c2nc3ccccc3[nH]2)[nH]n1)c1ccc(N2CCNCC2)nc1 [Compound A-218, N-[5-(1H-benzimidazol-2-yl)-1H-pyrazol-3-yl]-6-piperazin-1-yl-pyridine-3-carboxamide] | 6.52 to 7.00 |
| Cn1nc(NC(=O)c2ccc(N3CCNC(=O)C3)nc2)cc1-c1nc2ccccc2[nH]1 [Compound A-221, N-[5-(1H-benzimidazol-2-yl)-1-methyl-pyrazol-3-yl]-6-(3-oxopiperazin-1-yl)pyridine-3-carboxamide] | 6.00 to 6.52 |
| Cn1nc(NC(=O)c2ccc(OCCO)c(C(F)(F)F)c2)cc1-c1nc2ccccc2[nH]1 [Compound A-223, N-[5-(1H-benzimidazol-2-yl)-1-methyl-pyrazol-3-yl]-4-(2-hydroxyethoxy)-3-(trifluoromethyl)benzamide] | > 7.00 |
| Cn1nc(NC(=O)c2ccc(N3CCOC(CO)C3)nc2)cc1-c1nc2ccccc2[nH]1 (stereo not shown) [Compound A-224, N-[5-(1H-benzimidazol-2-yl)-1-methyl-pyrazol-3-yl]-6-[2-(hydroxy-methyl)morpholin-4-yl]pyridine-3-carboxamide] | 6.52 to 7.00 |
| Cn1nc(NC(=O)c2ccc(N3CC[C@@H](O)C3)nc2)cc1-c1nc2ccccc2[nH]1 [Compound A-225, N-[5-(1H-benzimidazol-2-yl)-1-methyl-pyrazol-3-yl]-6-[(3R)-3-hydroxy-pyrrolidin-1-yl]pyridine-3-carboxamide] | 6.00 to 6.52 |
| C[C@@H]1COCCN1c1ccc(C(=O)Nc2cc(-c3nc4ccccc4[nH]3)n(C)n2)cn1 [Compound A-229, N-[5-(1H-benzimidazol-2-yl)-1-methyl-pyrazol-3-yl]-6-[(3R)-3-methylmorpholin-4-yl]pyridine-3-carboxamide] | 6.52 to 7.00 |
| C[C@H]1COCCN1c1ccc(C(=O)Nc2cc(-c3nc4ccccc4[nH]3)n(C)n2)cn1 [Compound A-230, N-[5-(1H-benzimidazol-2-yl)-1-methyl-pyrazol-3-yl] -6-[(3S)-3-methylmorpholin-4-yl]pyridine-3-carboxamide] | 6.52 to 7.00 |
| Cc1cc(N2CCOCC2)ncc1C(=O)Nc1cc(-c2nc3ccccc3[nH]2)n(C)n1 [Compound A-232, N-[5-(1H-benzimidazol-2-yl)-1-methyl-pyrazol-3-yl]-4-methyl-6-morpholino-pyridine-3-carboxamide] | < 6.00 |
| CC(=O)N1CCN(c2ccc(C(=O)Nc3cc(-c4nc5ccccc5[nH]4)[nH]n3)cn2)CC1 [Compound A-233] | 6.00 to 6.52 |
| COc1ccc(C(=O)Nc2nc(-c3nc4ccccc4[nH]3)n(C)n2)cc1Cl [Compound A-234, N-[5-(1H-benzimidazol-2-yl)-1-methyl-1,2,4-triazol-3-yl]-3-chloro-4-methoxy-benzamide] | 6.00 to 6.52 |
